pEC50: −log10 of the molar value.
Tests used:
ΔF508-CFTR = ΔF508-CFTR (Homo sapiens, UniProt P13569, DEL508-508); test: ΔF508-CFTR potentiator assay, HS-YFP fluorescence quenching; assay type: cell-based; conditions: for activity on ΔF508-CFTR: inactive up to 20 μM; for nH (Hill coefficient): FRT cells, forskolin 20 μM, Hill fit
[1] = tested on: guinea pig ileum longitudinal smooth muscle; test: Relaxant activity on K+-depolarized
guinea pig left atrium [2] = test: Negative inotropic activity in isolated left atrium driven at 1 Hz
guinea pig left atrium [3] = conditions: cited from earlier work; for intrinsic activity, inotropic effect: at the highest concentration studied
guinea pig right atrium = conditions: cited from earlier work; for intrinsic activity, chronotropic effect: at the highest concentration studied
guinea pig aortic strip = test: Vasorelaxant activity, calcium-induced contraction of K+-depolarized; conditions: result in words

SMILES	activity on ΔF508-CFTR (ΔF508-CFTR)	nH (Hill coefficient) (ΔF508-CFTR)	also measured
COC(=O)C1=C(C)NC(C)=C(C(=O)OC)C1c1c(-c2ccccc2OC)nc2sccn12 [Compound 35]	inactive ^b	–	–
COC(=O)C1=C(C)NC(C)=C(C(=O)OC)C1c1c(-c2cc(OC)ccc2OC)nc2sc(Cl)cn12 [Compound 41]	inactive ^b	–	–
COC(=O)C1=C(C)NC(C)=C(C(=O)OC)C1c1c(-c2ccccc2OC(F)(F)F)nc2sccn12 [Compound 37]	inactive ^b	–	–
COC(=O)C1=C(C)NC(C)=C(C(=O)OC)C1c1c(-c2ccc(C(F)(F)F)cc2)nc2sccn12 [Compound 17, Dimethyl 2,6-Dimethyl-4-(6-(4-(trifluoromethyl)phenyl)imidazo[2,1-b]thiazol-5-yl)-1,4-dihydropyridine-3,5-dicarboxylate]	–	2.15	GPILSM relaxant potency, times less potent than nifedipine [1]: about 3 times; negative inotropic effect, times greater than that of nifedipine (guinea pig left atrium [2]): about 2.6 times
COC(=O)C1=C(C)NC(C)=C(C(=O)OC)C1c1c(C)nc2sc(Cl)cn12 [Compound 29]	–	1.55	negative inotropic effect, times greater than that of nifedipine (guinea pig left atrium [2]): about 2.6 times
CCc1cn2c(C3C(C(=O)OC)=C(C)NC(C)=C3C(=O)OC)c(-c3cc(OC)ccc3OC)nc2s1 [Compound 42]	inactive ^b	–	–
COC(=O)C1=C(C)NC(C)=C(C(=O)OC)C1c1c(C)nc2sc(C)cn12 [Compound 30]	inactive ^b	–	intrinsic activity, inotropic effect (guinea pig left atrium [3]): less than 50%; intrinsic activity, chronotropic effect (guinea pig right atrium): < 40%
COC(=O)C1=C(C)NC(C)=C(C(=O)OC)C1c1c(Cl)nc2sc(C)cn12 [Compound 32]	inactive ^b	–	–
CCOC(=O)C1=C(C)NC(C)=C(C(=O)OCC)C1c1c(-c2ccc(Cl)c(Cl)c2Cl)nc2sccn12 [Compound 26, Diethyl 2,6-Dimethyl-4-(6-(2,3,4-trichlorophenyl)imidazo[2,1-b]thiazol-5-yl)-1,4-dihydropyridine-3,5-dicarboxylate]	–	0.44	GPILSM relaxant potency, times less potent than nifedipine [1]: about 65 times
C=CCOC(=O)C1=C(C)NC(C)=C(C(=O)OCC=C)C1c1c(-c2cc(OC)ccc2OC)nc2sccn12 [Compound 24, Diallyl 4-(6-(2,5-Dimethoxyphenyl)imidazo[2,1-b]thiazol-5-yl)-2,6-dimethyl-1,4-dihydropyridine-3,5-dicarboxylate]	inactive ^b	–	–
CCOC(=O)C1=C(C)NC(C)=C(C(=O)OCC)C1c1c(Cl)nc2sc(C)cn12 [Compound 25, Diethyl 4-(6-Chloro-2-methylimidazo[2,1-b]thiazol-5-yl)-2,6-dimethyl-1,4-dihydropyridine-3,5-dicarboxylate]	–	0.86	GPILSM relaxant potency, times less potent than nifedipine [1]: about 65 times
COC(=O)C1=C(C)NC(C)=C(C(=O)OC)C1c1c(-c2cccc(C(F)(F)F)c2)nc2sccn12 [Compound 39]	–	1.01	GPILSM relaxant potency, times less potent than nifedipine [1]: about 65 times
COC(=O)C1=C(C)NC(C)=C(C(=O)OC)C1c1c(-c2ccccc2)nc2n1CCS2 [Compound 23, Dimethyl 2,6-Dimethyl-4-(6-phenyl-2,3-dihydroimidazo[2,1-b]thiazol-5-yl)-1,4-dihydropyridine-3,5-dicarboxylate]	inactive ^b	–	–
COC(=O)C1=C(C)NC(C)=C(C(=O)OC)C1c1c(-c2cccc(OC(F)(F)F)c2)nc2sccn12 [Compound 38]	–	0.81	GPILSM relaxant potency, times less potent than nifedipine [1]: about 65 times
C=CCOC(=O)C1=C(C)NC(C)=C(C(=O)OCC=C)C1c1c(-c2ccc(OC(F)(F)F)cc2)nc2sccn12 [Compound 21, Diallyl 2,6-Dimethyl-4-(6-(4-(trifluoromethoxy)phenyl)imidazo[2,1-b]thiazol-5-yl)-1,4-dihydropyridine-3,5-dicarboxylate]	–	1.09	GPILSM relaxant potency, times less potent than nifedipine [1]: about 3 times
COC(=O)C1=C(C)NC(C)=C(C(=O)OC)C1c1c(-c2cc(OC)c(OC)c(OC)c2)nc2sc(Cl)cn12 [Compound 44]	inactive ^b	–	intrinsic activity, inotropic effect (guinea pig left atrium [3]): less than 50%; intrinsic activity, chronotropic effect (guinea pig right atrium): < 40%
CCOC(=O)C1=C(C)NC(C)=C(C(=O)OCC)C1c1c(C(F)(F)F)nc2sccn12 [Compound 16, Diethyl 2,6-Dimethyl-4-(6-(trifluoromethyl)imidazo[2,1-b]thiazol-5-yl)-1,4-dihydropyridine-3,5-dicarboxylate]	–	0.66	GPILSM relaxant potency, times less potent than nifedipine [1]: about 65 times
COC(=O)C1=C(C)NC(C)=C(C(=O)OC)C1c1c(-c2cccc(OC)c2)nc2sccn12 [Compound 36]	–	1.5	GPILSM relaxant potency, times less potent than nifedipine [1]: about 65 times
O=c1c(-c2ccc(O)cc2)coc2cc(O)cc(O)c12 [genistein, reference compound]	–	1.3	inotropic activity (guinea pig left atrium [3]; up to 10 μM): positive inotropic activity; vascular effect in K+-depolarized (80 mM) vascular smooth muscle (guinea pig aortic strip): inactive

SMILES	activity on ΔF508-CFTR (ΔF508-CFTR)	nH (Hill coefficient) (ΔF508-CFTR)	also measured
COC(=O)C1=C(C)NC(C)=C(C(=O)OC)C1c1c(Cl)nc2scc(C)n12 [Compound 33]	–	0.82	negative inotropic effect, times greater than that of nifedipine (guinea pig left atrium [2]): about 2.6 times
CCOC(=O)C1=C(C)NC(C)=C(C(=O)OCC)C1c1c(-c2ccc(C(F)(F)F)cc2)nc2sccn12 [Compound 18, Diethyl 2,6-Dimethyl-4-(6-(4-(trifluoromethyl)phenyl)imidazo[2,1-b]thiazol-5-yl)-1,4-dihydropyridine-3,5-dicarboxylate]	–	1.69	–
COC(=O)C1=C(C)NC(C)=C(C(=O)OC)C1c1c(Cl)nc2sc(Cl)cn12 [Compound 31]	–	1.04	negative inotropic effect, times greater than that of nifedipine (guinea pig left atrium [2]): about 2.6 times
C=CCOC(=O)C1=C(C)NC(C)=C(C(=O)OCC=C)C1c1c(-c2ccc(C(F)(F)F)cc2)nc2sc(C)c(C)n12 [Compound 19, Diallyl 4-(2,3-Dimethyl-6-(4-(trifluoromethyl)phenyl)imidazo[2,1-b]thiazol-5-yl)-2,6-dimethyl-1,4-dihydropyridine-3,5-dicarboxylate]	–	1.14	negative inotropic over chronotropic selectivity ratio (guinea pig left atrium [2]; EC50 chronotropic / EC50 inotropic): about 33 fold
COC(=O)C1=C(C)NC(C)=C(C(=O)OC)C1c1c(-c2cc(OC)ccc2OC)nc2sc(C)cn12 [Compound 40]	inactive ^b	–	–
COC(=O)C1=C(C)NC(C)=C(C(=O)OC)C1c1c(C(F)(F)F)nc2sc(C)cn12 [Compound 28]	–	0.88	intrinsic activity, inotropic effect (guinea pig left atrium [3]): less than 50%; intrinsic activity, chronotropic effect (guinea pig right atrium): < 40%; GPILSM relaxant potency, times less potent than nifedipine [1]: about 65 times
COC(=O)C1=C(C)NC(C)=C(C(=O)OC)C1c1c(-c2cc(OC)c(OC)cc2[N+](=O)[O-])nc2sccn12 [Compound 47]	inactive ^b	–	–
CCOC(=O)C1=C(C)NC(C)=C(C(=O)OCC)C1c1c(-c2ccccc2)nc2sc(C)cn12 [Compound 22, Diethyl 2,6-Dimethyl-4-(2-methyl-6-phenylimidazo[2,1-b]thiazol-5-yl)-1,4-dihydropyridine-3,5-dicarboxylate]	–	0.93	–
COC(=O)C1=C(C)NC(C)=C(C(=O)OC)C1c1c(-c2c(OC)ccc(OC)c2[N+](=O)[O-])nc2sccn12 [Compound 46]	inactive ^b	–	–
COC(=O)C1=C(C)NC(C)=C(C(=O)OC)C1c1c(Cl)nc2sc(C)c(C)n12 [Compound 34]	–	1.32	–
CCOC(=O)C1=C(C)NC(C)=C(C(=O)OCC)C1c1cccc(Oc2ccccc2)c1 [Compound 48, reference compound]	–	0.97	–
C=CCOC(=O)C1=C(C)NC(C)=C(C(=O)OCC=C)C1c1ccc(C(C)(C)C)cc1 [Compound 49, reference compound]	–	3.58	–
COC(=O)C1=C(C)NC(C)=C(C(=O)OC)C1c1c(-c2cc(OC)c([N+](=O)[O-])cc2OC)nc2sc(Cl)cn12 [Compound 45]	inactive ^b	–	pEC50 (guinea pig right atrium; read-out: EC50 of chronotropic negative activity, Probit analysis, ref RS1): 4.73; GPILSM relaxant potency, times less potent than nifedipine [1]: about 65 times
COC(=O)C1=C(C)NC(C)=C(C(=O)OC)C1c1c(C(F)(F)F)nc2sccn12 [Compound 27]	–	1.89	–
C=CCOC(=O)C1=C(C)NC(C)=C(C(=O)OCC=C)C1/C=C/c1ccccc1OC [Compound 50, reference compound]	–	1.18	–
COC(=O)C1=C(C)NC(C)=C(C(=O)OC)C1c1c(-c2ccc(OC(F)(F)F)cc2)nc2sccn12 [Compound 20, Dimethyl 2,6-Dimethyl-4-(6-(4-(trifluoromethoxy)phenyl)imidazo[2,1-b]thiazol-5-yl)-1,4-dihydropyridine-3,5-dicarboxylate]	–	1.8	GPILSM relaxant potency, times less potent than nifedipine [1]: about 3 times
COC(=O)C1=C(C)NC(C)=C(C(=O)OC)C1c1ccccc1[N+](=O)[O-] [nifedipine, reference compound]	–	2.58	potency increase in nonvascular smooth muscle compared to aortic strips ([1]; GPILSM vs aortic strips): 6 times
COC(=O)C1=C(C)NC(C)=C(C(=O)OC)C1c1c(-c2ccc(OC)c(OC)c2)nc2sccn12 [Compound 43]	inactive ^b	–	–
